Our source for the Activity values is ChEMBL document CHEMBL2073940, “Vinblastine and sulfinpyrazone export by the multidrug resistance protein MRP2 is associated with glutathione export” (Br J Cancer, 2000).

Molecules are shown by their SMILES.

What all share (type): functional, cell-based
Details in all cases: dog, mdck-ii

Series [1] addresses T1, Multidrug resistance-associated protein 1 (Homo sapiens, UniProt P33527). Put plainly: TP_TRANSPORTER: inhibition of Glutathione efflux (Benzbromarone: 25 uM) in MRP1-expressing MDCKII cells.
Series [2] has as its target ATP-binding cassette sub-family C member 2 (Homo sapiens, UniProt Q92887). Put plainly: TP_TRANSPORTER: transepithelial transport (basal to apical) in MRP2-expressing MDCKII cells.
For series [3], the target named is T1, Multidrug resistance-associated protein 1. Put plainly: TP_TRANSPORTER: inhibition of Glutathione efflux (Sulfinpyrazone: 3200. uM) in MRP1-expressing MDCKII cells.
Series [4] shares this target. The experiment in a line: TP_TRANSPORTER: inhibition of Glutathione efflux (Indomethacin: 400 uM) in MRP1-expressing MDCKII cells.

T1 sequence (P33527 whole entry): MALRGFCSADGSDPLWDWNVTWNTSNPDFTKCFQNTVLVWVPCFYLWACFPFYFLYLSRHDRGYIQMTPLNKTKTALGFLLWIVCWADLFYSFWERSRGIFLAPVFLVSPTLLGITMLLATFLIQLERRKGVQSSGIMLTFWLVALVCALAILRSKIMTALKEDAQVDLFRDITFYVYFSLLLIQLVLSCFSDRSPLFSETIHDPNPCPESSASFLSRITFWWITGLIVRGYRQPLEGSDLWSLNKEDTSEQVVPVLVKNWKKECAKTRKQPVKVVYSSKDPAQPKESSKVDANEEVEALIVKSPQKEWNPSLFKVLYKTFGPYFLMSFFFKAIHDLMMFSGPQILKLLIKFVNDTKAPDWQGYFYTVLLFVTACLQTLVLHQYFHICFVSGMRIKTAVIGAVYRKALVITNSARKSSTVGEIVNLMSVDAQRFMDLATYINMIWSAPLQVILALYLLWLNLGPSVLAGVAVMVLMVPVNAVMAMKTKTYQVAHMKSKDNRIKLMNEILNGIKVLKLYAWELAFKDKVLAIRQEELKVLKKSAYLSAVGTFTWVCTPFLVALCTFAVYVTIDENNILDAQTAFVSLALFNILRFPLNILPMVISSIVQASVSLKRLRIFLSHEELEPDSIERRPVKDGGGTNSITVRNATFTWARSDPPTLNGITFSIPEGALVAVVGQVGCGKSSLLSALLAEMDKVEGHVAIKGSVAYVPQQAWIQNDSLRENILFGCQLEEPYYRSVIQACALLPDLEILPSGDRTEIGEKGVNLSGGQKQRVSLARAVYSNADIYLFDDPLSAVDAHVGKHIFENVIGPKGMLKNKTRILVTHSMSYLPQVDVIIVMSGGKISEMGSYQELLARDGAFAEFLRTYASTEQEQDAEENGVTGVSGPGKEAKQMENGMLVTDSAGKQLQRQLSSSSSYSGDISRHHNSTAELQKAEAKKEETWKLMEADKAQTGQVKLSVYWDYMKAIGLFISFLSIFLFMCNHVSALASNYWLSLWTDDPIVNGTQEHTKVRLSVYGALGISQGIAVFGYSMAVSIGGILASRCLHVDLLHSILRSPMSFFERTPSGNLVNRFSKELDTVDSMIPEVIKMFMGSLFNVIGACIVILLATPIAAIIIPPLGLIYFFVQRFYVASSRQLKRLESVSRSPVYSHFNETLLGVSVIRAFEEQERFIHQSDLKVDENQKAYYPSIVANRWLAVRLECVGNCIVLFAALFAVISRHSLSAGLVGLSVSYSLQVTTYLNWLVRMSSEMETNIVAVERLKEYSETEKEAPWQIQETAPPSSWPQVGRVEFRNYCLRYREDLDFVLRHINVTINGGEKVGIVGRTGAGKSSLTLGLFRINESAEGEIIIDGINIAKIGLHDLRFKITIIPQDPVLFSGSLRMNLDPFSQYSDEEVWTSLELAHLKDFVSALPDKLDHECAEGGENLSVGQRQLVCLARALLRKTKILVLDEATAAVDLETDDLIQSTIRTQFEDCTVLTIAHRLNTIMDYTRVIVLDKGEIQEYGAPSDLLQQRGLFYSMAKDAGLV
Sequence of ATP-binding cassette sub-family C member 2 (Q92887 whole entry): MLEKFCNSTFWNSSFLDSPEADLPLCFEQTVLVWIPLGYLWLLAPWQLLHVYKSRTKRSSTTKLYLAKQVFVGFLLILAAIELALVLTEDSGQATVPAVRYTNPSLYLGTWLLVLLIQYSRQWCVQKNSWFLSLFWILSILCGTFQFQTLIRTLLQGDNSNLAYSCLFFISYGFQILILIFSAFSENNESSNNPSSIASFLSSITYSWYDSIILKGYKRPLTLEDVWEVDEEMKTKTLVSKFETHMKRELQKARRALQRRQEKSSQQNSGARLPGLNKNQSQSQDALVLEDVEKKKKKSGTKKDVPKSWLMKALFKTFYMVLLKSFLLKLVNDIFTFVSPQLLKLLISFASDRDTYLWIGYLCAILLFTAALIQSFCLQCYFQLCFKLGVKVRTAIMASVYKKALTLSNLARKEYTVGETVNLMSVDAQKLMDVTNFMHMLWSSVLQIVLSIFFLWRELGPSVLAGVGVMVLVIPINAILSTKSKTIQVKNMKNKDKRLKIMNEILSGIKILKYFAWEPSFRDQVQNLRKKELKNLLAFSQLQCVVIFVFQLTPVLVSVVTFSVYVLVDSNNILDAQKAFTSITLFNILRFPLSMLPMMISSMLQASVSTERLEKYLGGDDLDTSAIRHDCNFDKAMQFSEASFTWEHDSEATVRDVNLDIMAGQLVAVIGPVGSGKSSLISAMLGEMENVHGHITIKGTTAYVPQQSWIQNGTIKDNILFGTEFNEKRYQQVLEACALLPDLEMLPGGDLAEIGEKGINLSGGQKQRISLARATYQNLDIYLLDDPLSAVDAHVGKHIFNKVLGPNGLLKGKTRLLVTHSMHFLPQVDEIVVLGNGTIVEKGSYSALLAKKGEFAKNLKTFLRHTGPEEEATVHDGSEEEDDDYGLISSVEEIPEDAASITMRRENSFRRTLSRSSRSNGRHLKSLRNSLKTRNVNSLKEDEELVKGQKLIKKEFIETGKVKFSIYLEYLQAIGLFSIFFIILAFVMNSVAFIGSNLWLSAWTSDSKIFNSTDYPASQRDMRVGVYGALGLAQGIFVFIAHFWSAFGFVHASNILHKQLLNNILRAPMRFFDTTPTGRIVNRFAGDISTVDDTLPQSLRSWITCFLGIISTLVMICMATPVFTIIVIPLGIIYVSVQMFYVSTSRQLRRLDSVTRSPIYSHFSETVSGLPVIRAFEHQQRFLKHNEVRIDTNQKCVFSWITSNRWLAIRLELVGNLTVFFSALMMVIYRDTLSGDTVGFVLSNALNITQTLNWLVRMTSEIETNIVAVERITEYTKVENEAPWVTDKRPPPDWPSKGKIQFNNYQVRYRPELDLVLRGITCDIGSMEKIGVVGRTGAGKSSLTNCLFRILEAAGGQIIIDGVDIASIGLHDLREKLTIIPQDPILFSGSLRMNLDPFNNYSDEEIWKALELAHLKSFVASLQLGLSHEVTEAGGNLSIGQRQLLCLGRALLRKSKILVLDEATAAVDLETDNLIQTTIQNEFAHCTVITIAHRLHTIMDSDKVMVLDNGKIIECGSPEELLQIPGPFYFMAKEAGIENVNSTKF

For the compound `CCc1oc2ccccc2c1C(=O)c1cc(Br)c(O)c(Br)c1` [BENZBROMARONE], in series [1], the Activity entry is “inhibitor [+]”.

As for `O=C1C(CC[S+]([O-])c2ccccc2)C(=O)N(c2ccccc2)N1c1ccccc1` (centres undefined) [SULFINPYRAZONE], the Activity result in series [2] is “substrate [+]”; in series [3] it was “inhibitor [+]”.

`COc1ccc2c(c1)c(CC(=O)O)c(C)n2C(=O)c1ccc(Cl)cc1` [INDOMETHACIN]: in series [4], the Activity result is “inhibitor [+]”.
